These results are taken from article PMC12703733, “Probing Guanidino Pendant or Bridged Groups in Cyclic Antimicrobial Peptides Derived from Temporin L: A Strategy to Improve Efficacy against Gram-Negative Bacteria” (Journal of Medicinal Chemistry, 2025).

Values after ≈ are worked out from the molar mass of the structure shown. Bridge positions count the residues as written; N and C are the ends. Square brackets hold non-standard residues; d marks the D form. Peptide text beside a SMILES is read from it.

The nature of one data set: circular dichroism. The note with it: water; pH ns; 25 °C; 150 uM. In general terms: Circular dichroism is the unequal absorption of left and right circularly polarised light.
For the next data set, the system named is A. baumannii ATCC 19606. Nature of the data set: microbe, parasite or virus in culture. It is filed as cell-based. Particulars: ATCC 19606. In short, it runs like this: (§1)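 Mid-log bacteria were diluted in Mueller Hinton broth to 2 × 10^6 cell/mL, exposed to compound and incubated at 37 °C. MIC values came from three identical readings across four independent experiments.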

For another data set, the system named is B. megaterium BM11. Nature of the data set: microbe, parasite or virus in culture. It is filed as cell-based. The note with it: BM11. In short, it runs like this:
as §1

The next data set relates to E. coli ATCC 25922. Nature of the data set: microbe, parasite or virus in culture. In kind it is cell-based. The note with it: ATCC 25922. In short, it runs like this: as §1
A further data set deals with E. coli D21. Nature of the data set: microbe, parasite or virus in culture. Particulars: D21. In kind it is cell-based. In short, it runs like this: as §1
In another data set the test system is E. faecalis ATCC 29212. Kind of data set: microbe, parasite or virus in culture. In kind it is cell-based. Particulars: ATCC 29212. The procedure, abridged: as §1
The test system of the next data set is P. aeruginosa PAO1. Nature of the data set: microbe, parasite or virus in culture. The note with it: PAO1. It is filed as cell-based. In short, it runs like this:
as §1

For another data set, the system named is S. agalactiae ATCC 27591. Nature of the data set: microbe, parasite or virus in culture. Particulars: ATCC 27591. In kind it is cell-based. In short, it runs like this:
as §1

The next data set has as its system S. aureus ATCC 25923. Nature of the data set: microbe, parasite or virus in culture. In kind it is cell-based. Particulars: ATCC 25923. The procedure, abridged: as §1
The subject of data set [1] is S. epidermidis ATCC 12228. Kind of data set: microbe, parasite or virus in culture. In kind it is cell-based. The note with it: ATCC 12228. The procedure, abridged:
as §1

In the next data set the test system is all bacteria tested. Kind of data set: MIC panel, geometric mean over all strains. It is filed as cell-based. The note with it: geometric mean of the MICs against all bacteria tested. The procedure:
(§2) The antimicrobial efficacy of the TLcyc analogues was assessed against a representative panel of Gram-positive and Gram-negative bacterial strains, by determining their minimal inhibitory concentrations (MIC), as summarized in Table . To provide an integrated measure of antimicrobial potency, we calculated the geometric mean (GM) of MIC values across all strains (GMall), as well as separately for Gram-positive (GMGram+) and Gram-negative (GMGram–) bacteria.
(§3) Bacterial strains used in this study were the Gram-positive S. aureus ATCC 25923, S. epidermidis ATCC 12228, B. megaterium BM11, S. agalactiae ATCC 27591, E. faecalis ATCC 29212 and the Gram-negative E. coli ATCC 25922, P. aeruginosa ATCC 27853, A. baumannii ATCC 19606, E. coli D21 and P. aeruginosa PAO1. […] Bacterial cells in the mid log phase were diluted in Muller Hinton (MH) at a concentration of 2 × 10^6 cell/mL. Aliquots of 50 μL of this bacterial suspension were added to 50 μL of MH containing serial 2-fold dilutions of the peptides (from 100 to 0.19 μM) in the wells a 96-well plate. Ciprofloxacin was used as antibiotic control. The plate was then incubated at 37 °C. MICs were obtained from three identical readings of four independent experiments.

Data set [2] relates to Gram-positive bacteria tested. Kind of data set: MIC panel, Gram-positive strains (geometric mean, range). It is filed as cell-based. The note with it: geometric mean of the MICs against Gram-positive bacteria tested. The procedure:
as §2, §3

The test system of data set [3] is Gram-negative bacteria tested. Kind of data set: MIC panel, Gram-negative strains (geometric mean). The note with it: geometric mean of the MICs against Gram-negative bacteria tested. In kind it is cell-based. The procedure: as §2, §3
Data set [4] is classed as cell-based, human. Particulars: human. The procedure, abridged: (§4)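 Cells were plated at about 4 × 10^4/well in 2% FBS, then exposed to peptide at 100–3.12 μM in serum-free medium for 2 h or 24 h. Viability was measured by MTT reduction (0.5 mg/mL, 4 h, absorbance 570 nm) relative to untreated cells, as the mean ± SEM of three experiments.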
Data set [5] has as its system human keratinocytes (HaCaT cells). In kind it is cell-based. The note with it: human, 24 h. In short, it runs like this:
as §4

Data set [6] in a line: Circular dichroism in water (BeStSel). It is filed as physicochemical. Particulars: predicted from CD spectra in H2O using BeStSel. As for the experimental part:
The secondary structure of each peptide was studied in solution and in small unilamellar vesicles (SUVs) mimicking Gram-positive and Gram-negative membranes performing CD analysis. The CD spectrum for each peptide in solution was recorded at 150 μM, using the quartz cells of 0.1 cm path length with a Jasco J-1500 CD Spectrometer at 25 °C. SUVs at the concentration of 150 μM (P/L = 1) and […] (P/L = 0.4) were prepared as reported: the lipid film was hydrated with water for 1h and then sonicated for 30 min. CD spectra were recorded at the peptide/lipid ratio of 1:1 both in the presence with SUVs mimicking Gram-positive and Gram-negative membranes. CD spectra were recorded at 25 °C on a in a 0.1 cm quartz cell using three consecutive scans from 260 to 190 nm, 3 nm bandwidth, a time constant of 16 s, and a scan rate of 10 nm/min.

The subject of data set [7] is methicillin-resistant Staphylococcus aureus (MRSA). Particulars: MRSA strain; ref Verma et al.; cited from earlier work.

As a reminder, the CC50 is the concentration giving 50% cytotoxicity. High values mean better tolerance by the cells, low ones harm at low concentration. The viability is a read-out of living cells in per cent, often relative to untreated cells.

In turn, `CC[C@H](C)[C@H](NC(=O)[C@H](CCCNC(=N)N)NC(=O)[C@H]1CCC(=O)NCCCC[C@H](NC(=O)[C@H](Cc2ccccc2)NC(=O)[C@H](Cc2c[nH]c3ccccc23)NC(=O)[C@@H]2CCCN2C(=O)[C@@H](NC(=O)[C@@H](N)Cc2ccccc2)C(C)C)C(=O)N[C@@H](CCCNC(=N)N)C(=O)N[C@@H](Cc2ccccc2)C(=O)N[C@H](CC(C)C)C(=O)N1)C(=O)N[C@@H](CC(C)C)C(N)=O` [Peptide 9, FVPWF[KRFle]RIL] (H-FVPWFKRF[dL][dE]RIL-NH2; lactam 6-10) registered a helicity in “circular dichroism” of 11%. The MIC against A. baumannii ATCC 19606 is 3.12 µM (≈ 5.4 µg/mL). Besides, the MIC in the data set on B. megaterium BM11 worked out at 1.56 µM (≈ 2.7 µg/mL). The same compound came in with an MIC in the data set with E. coli ATCC 25922 of 6.25 µM (≈ 10.8 µg/mL). The compound also registered an MIC against E. coli D21 of 6.25 µM (≈ 10.8 µg/mL). Moreover, the MIC in the data set with E. faecalis ATCC 29212 came to 12.5 µM (≈ 21.7 µg/mL). In the data set with P. aeruginosa PAO1, this compound gave an MIC of 50 µM (≈ 86.6 µg/mL). In the data set with S. agalactiae ATCC 27591, this compound gave an MIC of 3.12 µM (≈ 5.4 µg/mL). The same compound registered an MIC against S. aureus ATCC 25923 of 6.25 µM (≈ 10.8 µg/mL). The same compound yielded an MIC in [1] of 3.12 µM (≈ 5.4 µg/mL). The “geometric mean GMall” value in the data set with all bacteria tested worked out at 7.67 µM. For the same compound, the “geometric mean GMGram+” value in [2] turned out to be 4.11 µM. Besides, the “geometric mean GMGram–” value in data set [3] was 14.32 µM. Besides, the CC50 at 24 h in data set [4] (CC50) was > 50 µM. For the same compound, in [4] (Cell viability (%)), the viability at 2 h, 3.12 µM worked out at 106%; the viability at 2 h, 6.25 µM was found to be 106%; the viability at 2 h, 12.5 µM came to 98%; the viability at 2 h, 25 µM is 94%. In data set [4] (Cell viability (%)), the viability at 2 h, 50 µM was 74%; the viability at 2 h, 100 µM was found to be 22%; the viability at 24 h, 3.12 µM turned out to be 115 ± 23%; the viability at 24 h, 6.25 µM worked out at 109 ± 24%. In addition, in data set [4] (Cell viability (%)), the viability at 24 h, 12.5 µM is 112 ± 20%; the viability at 24 h, 25 µM is 120 ± 13%; the viability at 24 h, 50 µM is 82 ± 10%; the viability at 24 h, 100 µM came to 4 ± 2%. Also, in data set [5], the 50% cytotoxic concentration (CC50) is 54.3 µM. In data set [6], the “Content in water (%) random” value was 53%, the “Content in water (%) α-helix” value was 11% and the “Content in water (%) β-strand” value was 36%.

“FVQWFSKFLGRIL [TL, 13-mer linear antimicrobial peptide from Rana temporaria]”: the MIC in data set [7] was 6.25 µM.
